How the values were obtained:
[1] = tested on: mdx mice; assay: Pathological markers (myofiber CSA, H&E inflammation, TUNEL) in mdx mice; type: in vivo; conditions: pargyline treatment
Method: (§1) Col6a1^−/− mice were backcrossed in the inbred C57BL/6J strain for eight generations as described (Irwin, W. A., et al., (2003) Nat. Genet., 35, 367-371), and data were obtained by comparing Col6a1^−/− mice with their wild-type littermates. Wild-type C57BL/10 mice and mdx (in the C57BL/10 background) were obtained from Charles River and Jackson Laboratories, respectively. Pargyline (50 mg/kg/days) or vehicle (phosphate-buffered saline, PBS) were administered by daily intraperitoneal (i.p.) injection for 7 days in 6-month-old Col6a1^−/− and C57BL/6J male mice or 5-week-old mdx and C57BL/10 male mice. During the treatment, mice were placed in separate cages with a running wheel. At the end of the treatment, mice were sacrificed and muscles were removed and stored in liquid nitrogen until use.
Cross-sections (7 μm thick) were prepared and processed for hematoxylin and eosin (H&E) staining. For the morphometric analysis of myofiber cross sectional areas (CSAs), we counted approximately 2000 fibers per mouse for each muscle type by means of ImageJ software. At least three sections from each muscle were analyzed. TUNEL (terminal deoxynucleotidyl transferase-mediated dUTP nick end-labeling) was performed on paraffin-embedded sections (7 μm thick) using the ApopTag in situ apoptosis detection kit (Chemicon). Samples were stained with peroxidase diaminobenzidine to detect TUNEL-positive nuclei and counterstained with Hoechst 33258 to identify all nuclei, as described previously (Irwin, W. A., et al., (2003) Nat. Genet, 35, 367-371). The total number of nuclei and number of TUNEL-positive nuclei were determined in randomly selected fibers using a Zeiss Axioplan microscope equipped with a Leica DC 500 camera. Membrane permeability of skeletal muscle was directly visualized by immunohistochemical staining with IgG (Weller, B., et al., (1990) J. Neurol. Sci., 100, 9-13 and Blaauw, B., et al., (2008) Hum. Mol. Genet., 17, 3686-36%). […]

[2] = tested on: Col6a1^−/− mice; assay: Tm oxidation (DCB formation) by immunoelectrophoresis, Col6a1−/− mice; type: in vivo; conditions: Col6a1−/− diaphragm, pargyline 50 mg/kg/day i.p. 1 week
[3] = tested on: Col6a1^−/− mice; assay: Muscle functional assessment (skinned fiber tension, gastrocnemius force, running wheel) in Col6a1−/− mice; type: in vivo
Method: as §1
Single myofibers were isolated from Col6a1^−/− gastrocnemius muscle, chemically skinned as described (Rossi, R., et al., (2001) Am. J. Physiol. Cell Physiol., 281, C585-0594) and tension was measured during maximal isometric activation (pCa=4.5, T=20° C., initial sarcomere length=2.75 μm). Force measurements were performed in the left and/or right gastrocnemius muscle of anesthetized mice by electrical stimulation through the sciatic nerve, as described previously (Blaauw, B., et al., (2008) Hum. Mol. Genet., 17, 3686-3696). Voluntary exercise was evaluated by placing a wheel in the cage. Before the treatment, mice were placed in separate cages with wheel to acclimatize, then the average distance covered by each mouse in 24 h during the treatment was measured using an automatic counter.
Biochemical and histological analyses were paralleled by functional assessment of the contractile performance of muscles in vivo and isolated muscle fibers in vitro. Single-skinned muscle fibers dissected from gastrocnemius muscle were maximally calcium-activated at optimal sarcomere length. […] After acclimatizing mice for 1 week to a wheel placed in their cage, the daily average distance was measured.

[4] = tested on: Col6a1^−/− mice; assay: Pathological markers (TUNEL, IgG staining, Evans blue, myofiber CSA) in Col6a1−/− mice; type: in vivo; conditions: pargyline treatment
Method: as §1
Cross-sections (7 μm thick) were prepared and processed for hematoxylin and eosin (H&E) staining. For the morphometric analysis of myofiber cross sectional areas (CSAs), we counted approximately 2000 fibers per mouse for each muscle type by means of ImageJ software. At least three sections from each muscle were analyzed. TUNEL (terminal deoxynucleotidyl transferase-mediated dUTP nick end-labeling) was performed on paraffin-embedded sections (7 μm thick) using the ApopTag in situ apoptosis detection kit (Chemicon). Samples were stained with peroxidase diaminobenzidine to detect TUNEL-positive nuclei and counterstained with Hoechst 33258 to identify all nuclei, as described previously (Irwin, W. A., et al., (2003) Nat. Genet, 35, 367-371). The total number of nuclei and number of TUNEL-positive nuclei were determined in randomly selected fibers using a Zeiss Axioplan microscope equipped with a Leica DC 500 camera. Membrane permeability of skeletal muscle was directly visualized by immunohistochemical staining with IgG (Weller, B., et al., (1990) J. Neurol. Sci., 100, 9-13 and Blaauw, B., et al., (2008) Hum. Mol. Genet., 17, 3686-36%). Cryosections (10 μm thick) were incubated with anti-mouse fluorescein isothiocyanate-conjugated IgG, washed twice with PBS, mounted and visualized with an Olympus IMT-2 inverted microscope as previously described (Petronilli V., et al., (1999) Biophys. J., 76, 725-734) using excitation/emission cubes of 488/525±25 nm bandpass. Evans blue dye staining of muscles in vivo was performed by i.p. injection with 0.2 ml Evans blue (10 mg/ml in PBS; Sigma). Mice were sacrificed after 16-18 h and diaphragms were fixed with 4% paraformaldehyde overnight at 4° C. After fixation, the samples were observed by means of light microscopy.
Contractile impairment and high apoptosis rate are two specific features of skeletal muscles of Col6a1^−/− mice (Irwin, W. A., et al. (2003) Nat. Genet 35, 367-371). […] Occurrence of apoptosis was evaluated by TUNEL. […]

[5] = tested on: MAO; assay: MAO activity assay (Amplex Red/HRP, tyramine) on muscle mitochondrial extracts after in vivo treatment; conditions: Col6a1−/− mice, gastrocnemius, pargyline 50 mg/kg/day i.p. for 1 week
Method: Muscle cryosections were suspended in PBS and centrifuged at 500 g for 10 min at 4° C. The supernatant was centrifuged at 8000×g for 10 min at 4° C. and the resulting pellet was resuspended in PBS and stored on ice until use. Protein concentration was determined by the Bradford assay (Bio-Rad). MAO activity assay was based on the detection of hydrogen peroxide generated during substrate catabolism in a horseradish peroxidase (HRP) coupled reaction using 10-acetyl-3,7-dihydroxyphenoxazine (Amplex Red reagent, Molecular Probes). The mitochondrial protein extracts (40 mg) were incubated in PBS with 10 mM Amplex Red and 15 mg/ml HRP. […] The fluorescence intensity was recorded at 37° C. using a Perkin Elmer LS-50B fluorimeter at the 544/590 nm excitation/emission wavelengths. Parallel samples were run in the absence of a substrate to take into account the increase in fluorescence not due to MAO activity. […]

[6] = tested on: Col6a1^−/− myoblasts; assay: Mitochondrial ROS production (Mitotracker Red) in myoblasts under oxidative stress; type: cell-based, mice; conditions: Col6a1−/− diaphragm myoblasts, 100 uM pargyline; inducers 100 uM H2O2, 5 uM arachidonic acid, 0.2 uM antimycin
Method: Myoblasts obtained from the diaphragm of Col6a1^−/− and Col6a1^+/+ mice were loaded with Mitotracker Red (MTR, 20 nM) to assess mitochondrial ROS production. After the first acquisition (with a fluorescence microscope), different inducers of oxidative stress (A: 100 uM H2O2, B: 5 uM arachidonic acid, C: 0.2 uM antimycin) were added and frames were collected at different intervals in the absence (filled square) and in the presence (filled triangles) of a MAO inhibitor (100 uM pargyline).
The extent of ROS accumulation in myoblasts obtained from diaphragm of Col6a1^−/− and Col6a1^+/+ mice was assessed. […] Remarkably, MAO inhibition reduced the presence of ROS in Col6a1^−/− myoblasts underlying the relevance of ROS production due to MAO activity.

[7] = tested on: mdx mice; assay: Tm oxidation (DCB formation) by immunoelectrophoresis, mdx mice; type: in vivo; conditions: gastrocnemius and quadriceps, i.p. pargyline for 1 week
Method: as §1
Protein extracts were prepared as described (Canton, M., et al., (2006) Eur. Heart J., 27, 875-881). Immunoblotting were stained with the following antibodies: anti-Tm CH1 clone (Sigma), anti-MAO-B D-16 and anti-MAO-A H-70 clone (Santa Cruz). […] Quantitation of Tm oxidation was performed by densitometric analysis of the bands obtained under non-reducing conditions (ImageJ software). […] Data were expressed as percentage of DCB relative to vehicle-treated wild-type mice. […]

[8] = tested on: mdx mice; assay: MAO-dependent ROS formation in muscles of mdx mice; type: in vivo; conditions: mdx-parg mice (n = 8)
Method: as §1
(§2) DHE is oxidized by ROS, forming ethidium bromide, which emits red fluorescence when intercalates with DNA (Benov, L., et al., (1998) Free Radic. Biol. Med., 25, 826-831). […] For the detection of the fluorescence, 568±25 nm excitation and 585 nm long-pass emission filter settings were used. Data were acquired and analyzed using Metamorph software (Universal Imaging).

[9] = tested on: Wild-type C57BL/10 mice; assay: ROS formation in muscles of wild-type C57BL/10 mice; type: in vivo; conditions: WT-parg mice (n = 8); WT-veh = 100.0
Method: as §1, §2

[10] = tested on: Col6a1^−/− mice; assay: DHE staining for ROS detection in muscle cryosections of Col6a1−/− mice; type: in vivo; conditions: 6-month-old Col6a1−/− mice, pargyline 50 mg/kg/day i.p. 1 week
Method: as §1
as §2, with “Imaging). […]” for “Imaging).”

## C#CCN(C)Cc1ccccc1 [Pargyline, N-Benzyl-N-methylprop-2-yn-1-amine]
[1]; diaphragm sections
  number of TUNEL-positive nuclei (apoptosis): significantly lower incidence
[1]; gastrocnemius muscle
  myofiber CSA fiber area distribution: normalized the fiber area distribution
[1]
  tissue inflammation in skeletal muscles (H&E): reduce tissue inflammation
[2]
  DCB content (Tm oxidation): significantly reduced
[3]; Col6a1−/− mice, pargyline treatment
  normalized force of gastrocnemius muscle in vivo: significantly increased
[3]; Col6a1−/− mice, pargyline-treated versus untreated
  voluntary exercise performance (running wheel, daily average distance): significant improvement
[3]; gastrocnemius fibers of pargyline-treated Col6a1−/− mice, maximal calcium activation
  contractile impairment (isometric tension of single-skinned fibers): disappeared
[4]; Col6a1−/− diaphragm
  damaged myofibers stained by Evans blue: largely reduced
  number of damaged fibers positive to IgG immunohistochemical staining: significantly decreased
[4]; Col6a1−/− mice, diaphragm sections, vehicle 62.4±2.3, wild-type 2.7±1.2
  number of TUNEL-positive nuclei: 6.9±1 nuclei/mm^2
[4]; Col6a1−/− tibialis anterior and diaphragm
  myofiber cross-sectional area variability (different sizes, prevalence of small fibers): markedly reduced
[5]
  MAO activity in skeletal muscle after treatment: abolished
[6]
  susceptibility to oxidative stress / mitochondrial ROS (Mitotracker Red): reduced
[7]
  oxidative modifications (Tm oxidation, DCB): significantly decreased
[8]; WT-veh = 100.0, mdx-veh 119.3 ± 1.3, in %
  ROS formation, Quadriceps: 102.9 ± 1.5
[8]; WT-veh = 100.0, mdx-veh 127.8 ± 9.0
  ROS formation, Gastrocnemius: 105.6 ± 2.2
[9]
  ROS formation, Gastrocnemius: 102.8 ± 2.8
  ROS formation, Quadriceps: 96.9 ± 6.2
[10]
  abnormal production of ROS (DHE fluorescence) in muscles: significantly decreased

Source: US20150290201A1, “TREATMENT OF MUSCULAR DYSTROPHIES AND ASSOCIATED CONDITIONS BY ADMINISTRATION OF MONOAMINE OXIDASE INHIBITORS” (UNIVERSITA DEGLI STUDI DI PADOVA, priority 2011, published 2015)
